Assay results: patent publication US12606528B2, “Methods and materials for inhibiting NF-kB activity” (University of Pittsburgh - Of the Commonwealth System of …, priority 2019, dated 2026)
Like-named read-outs stand apart in the source and are kept apart here.

Assays:
NF-κB = NF-κB assay: THP1-NF-κB-LUC cells, LPS-stimulated secreted luciferase; assay type: cell-based; conditions: read-out: IC50 (NF-κB assay)
How it was run: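 THP1-NF-κB-LUC cells (25k/well) were pretreated with compounds for 2 h, then stimulated with LPS (10 ng/mL) for 18 h. Secreted luciferase was measured and normalized to vehicle, and IC50 was fitted from the concentration series.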

TNF release = experiment: TNF assay: TNF release from LPS-stimulated human PBMCs (TNF ELISA); assay type: cell-based; conditions: PBMC, read-out: IC50 (TNF assay)
Description: 25k THP1-NF-κB-LUC cells were dispensed into 384 well plate (per well). Cells were treated with compounds with various concentrations for 2 hours before addition of LPS (10 ng/mL) for 18 hours. Secreted luciferase activity were measured using quant-luc reagents (1 bag of luc reagent dilute to 40 mL, use 10 μL per well). Data were normalized to vehicle control and graphed. Compound IC50 towards inhibiting NF-κB were determined through Prism. Similarly, 10k human PBMCs cells were cultured in 384 well plate (per well). Cells were treated with compounds with various concentrations for 2 hours before addition of LPS (10 ng/ml) for 18 hours, and supernatants were collected and assayed for TNF ELISA. Compound IC50 towards inhibiting TNF release were determined through Prism. • Activity: “+”>10 μM, “++”>1 μM and <10 μM, “+++”>0.1 μM and <1 μM, “++++”<0.1 μM.

[1] = THP1-NF-κB-LUC cells, LPS-stimulated
[2] = LPS-stimulated human PBMCs, TNF ELISA
[3] = THP1-NF-κB-LUC cells, compounds 2 hours before LPS (10 ng/mL) for 18 hours, secreted luciferase
[4] = human PBMCs, compounds 2 hours before LPS (10 ng/ml) for 18 hours, supernatant TNF ELISA

Structure (SMILES)	IC50 (NF-κB; [1]) [µM]	IC50 (TNF release; [2]) [µM]	IC50 (NF-κB; [3]) [µM]	IC50 (TNF release; [4]) [µM]	further results
Cc1ccc(-c2nc(S(=O)(=O)c3ccc(Br)cc3)c(S(C)(=O)=O)o2)cc1 [BC19128]	1 to 10	0.1 to 1	–	–	–
CCS(=O)(=O)c1oc(-c2ccc(C)cc2)nc1S(=O)(=O)c1ccc(Br)cc1 [BC19129]	< 0.1	0.1 to 1	–	–	–
CCCS(=O)(=O)c1oc(-c2ccc(C)cc2)nc1S(=O)(=O)c1ccc(Br)cc1 [BC19130]	0.1 to 1	0.1 to 1	–	–	–
O=C1COc2cc(S(=O)(=O)Nc3ccc(Cl)cc3)c(Cl)cc2N1 [BC19133]	–	–	< 0.1	> 10	–
CCOc1ccc(NS(=O)(=O)c2cc3c(cc2Br)NC(=O)CO3)cc1 [BC19135]	–	–	> 10	> 10	–
CC(C)c1ccc(NS(=O)(=O)c2cc3c(cc2Cl)NC(=O)CO3)cc1 [BC19136]	–	–	> 10	> 10	–
COc1ccc(NS(=O)(=O)c2cc3c(cc2Br)NC(=O)CO3)cc1 [BC19137]	–	–	0.1 to 1	> 10	–
CCc1ccc(NS(=O)(=O)c2cc3c(cc2Br)NC(=O)CO3)cc1 [BC19138]	–	–	< 0.1	> 10	–
Cn1nnnc1-c1ccc2nc(-c3ccc(F)cc3)c(-c3ccc(F)cc3)nc2c1 [BC19139]	< 0.1	> 10	–	–	–
Cc1cnc(-c2ccc3nc(-c4ccc(F)cc4)c(-c4ccc(F)cc4)nc3c2)o1 [BC19140]	1 to 10	> 10	–	–	–
Cc1nnc(-c2ccc3nc(-c4ccc(F)cc4)c(-c4ccc(F)cc4)nc3c2)o1 [BC19141]	0.1 to 1	> 10	–	–	–
CN1CCN(C(=O)c2ccc3nc(C(F)(F)F)c(-c4cccc(F)c4)nc3c2)CC1 [BC19142]	> 10	> 10	–	–	–
Fc1ccc(-c2nc3ccc(-c4nnc[nH]4)cc3nc2-c2ccc(F)cc2)cc1 [BC19143]	0.1 to 1	> 10	–	–	–
Fc1ccc(-c2nc3ccc(-c4nnn[nH]4)cc3nc2-c2ccc(F)cc2)cc1 [BC19144]	1 to 10	> 10	–	–	–
Fc1ccc(-c2nc3ccc(-c4ncco4)cc3nc2-c2ccc(F)cc2)cc1 [BC19145]	1 to 10	> 10	–	–	–
Cc1ccc(-c2nc(S(=O)(=O)c3ccc(C)cc3)c(S(=O)(=O)C(C)C)o2)cc1 [BC19146]	< 0.1	0.1 to 1	–	–	–
Cc1ccc(-c2nc(S(=O)(=O)c3ccc(F)cc3)c(S(C)(=O)=O)o2)cc1 [BC19147]	0.1 to 1	0.1 to 1	–	–	–
Cn1cc(-c2ccc3nc(-c4ccc(F)cc4)c(-c4ccc(F)cc4)nc3c2)nn1 [BC19148]	< 0.1	> 10	–	–	–
CN1CCN(C(=O)c2ccc3nc(C(F)(F)F)c(-c4ccncc4)nc3c2)CC1 [BC19149]	> 10	> 10	–	–	–
Fc1ccc(-c2nc3ccc(-c4c[nH]nn4)cc3nc2-c2ccc(F)cc2)cc1 [BC19150]	0.1 to 1	1 to 10	–	–	–
Cc1nnc(-c2ccc3nc(C(F)(F)F)c(-c4ccc(F)cc4)nc3c2)o1 [BC19151]	> 10	> 10	–	–	–

Structure (SMILES)	IC50 (NF-κB; [1]) [µM]	IC50 (TNF release; [2]) [µM]	IC50 (NF-κB; [3]) [µM]	IC50 (TNF release; [4]) [µM]	further results
Cn1nnnc1-c1ccc2nc(-c3ccc(F)cc3)c(C(F)(F)F)nc2c1 [BC19152]	> 10	> 10	–	–	–
Fc1ccc(-c2nc3ccc(-c4nnn[nH]4)cc3nc2C(F)(F)F)cc1 [BC19153]	> 10	> 10	–	–	–
C#CCNC(=O)c1ccc2nc(-c3ccc(F)cc3)c(-c3ccc(F)cc3)nc2c1 [BC19154]	< 0.1	> 10	–	–	–
NC(=O)c1ccc2nc(-c3cccs3)c(-c3ccc(F)cc3)nc2c1 [BC19155]	0.1 to 1	1 to 10	–	–	–
O=C(O)c1ccc2nc(-c3ccc(F)cc3)c(-c3cccs3)nc2c1 [BC19156]	–	–	–	–	IC50 (NF-κB): 1 to 10 µM; IC50 (TNF release; Homo sapiens): > 10 µM
N#Cc1ccc2nc(-c3cccs3)c(-c3ccc(F)cc3)nc2c1 [BC19157]	> 10	> 10	–	–	–
N#Cc1ccc2nc(-c3ccc(F)cc3)c(C(F)(F)F)nc2c1 [BC19158]	> 10	> 10	–	–	–
Fc1ccc(-c2nc3ccc(-c4nnc[nH]4)cc3nc2C(F)(F)F)cc1 [BC19159]	> 10	> 10	–	–	–
O=c1c(S(=O)(=O)c2ccc(F)cc2)c[nH]c2ccc(Cl)cc12 [BC19160]	–	–	> 10	> 10	–
O=C1COc2cc(S(=O)(=O)Nc3ccccc3)c(Cl)cc2N1 [BC19161]	–	–	1 to 10	> 10	–
Cc1ccc(Cl)cc1NS(=O)(=O)c1cc2c(cc1Cl)NC(=O)CO2 [BC19162]	–	–	> 10	> 10	–
COc1ccc(NS(=O)(=O)c2cc3c(cc2Br)NC(=O)CO3)cc1Cl [BC19163]	–	–	> 10	> 10	–
O=C1COc2cc(S(=O)(=O)Nc3ccc(OC(F)(F)F)cc3)c(Cl)cc2N1 [BC19164]	–	–	< 0.1	> 10	–
Cc1ccc(NS(=O)(=O)c2cc3c(cc2Cl)NC(=O)CO3)cc1Cl [BC19165]	–	–	0.1 to 1	> 10	–
O=C1COc2cc(S(=O)(=O)Nc3ccc(F)cc3F)c(Br)cc2N1 [BC19166]	–	–	< 0.1	> 10	–
CCc1cccc(NS(=O)(=O)c2cc3c(cc2Br)NC(=O)CO3)c1 [BC19167]	–	–	0.1 to 1	> 10	–
O=C1COc2c(cc(Cl)cc2S(=O)(=O)Nc2ccccc2)N1 [BC19168]	–	–	< 0.1	> 10	–
O=C1COc2c(cc(Cl)cc2S(=O)(=O)Nc2ccc(Cl)cc2)N1 [BC19169]	–	–	< 0.1	> 10	–
Cc1ccc(Cl)cc1NS(=O)(=O)c1cc(Cl)cc2c1OCC(=O)N2 [BC19170]	–	–	1 to 10	> 10	–
COc1ccc(NS(=O)(=O)c2cc(Br)cc3c2OCC(=O)N3)cc1Cl [BC19171]	–	–	< 0.1	> 10	–
O=C1COc2c(cc(Cl)cc2S(=O)(=O)Nc2ccc(OC(F)(F)F)cc2)N1 [BC19172]	–	–	< 0.1	> 10	–

Continued, in another order:

IC50 (NF-κB; [1]) [µM]	IC50 (TNF release; [2]) [µM]	IC50 (NF-κB; [3]) [µM]	IC50 (TNF release; [4]) [µM]	Structure (SMILES)	further results
–	–	< 0.1	> 10	CCOc1ccc(NS(=O)(=O)c2cc(Br)cc3c2OCC(=O)N3)cc1 [BC19173]	–
–	–	< 0.1	> 10	CC(C)c1ccc(NS(=O)(=O)c2cc(Cl)cc3c2OCC(=O)N3)cc1 [BC19174]	–
–	–	< 0.1	> 10	COc1ccc(NS(=O)(=O)c2cc(Br)cc3c2OCC(=O)N3)cc1 [BC19175]	–
–	–	< 0.1	> 10	Cc1ccc(NS(=O)(=O)c2cc(Cl)cc3c2OCC(=O)N3)cc1Cl [BC19176]	–
–	–	< 0.1	> 10	O=C1COc2c(cc(Br)cc2S(=O)(=O)Nc2ccc(F)c(F)c2)N1 [BC19177]	–
–	–	< 0.1	1 to 10	O=C1COc2c(cc(Br)cc2S(=O)(=O)Nc2ccc(F)cc2F)N1 [BC19178]	–
–	–	< 0.1	> 10	CCc1ccc(NS(=O)(=O)c2cc(Br)cc3c2OCC(=O)N3)cc1 [BC19179]	–
–	–	< 0.1	> 10	CCc1cccc(NS(=O)(=O)c2cc(Br)cc3c2OCC(=O)N3)c1 [BC19180]	–
> 10	> 10	–	–	CN1CC(=O)Nc2ccc(S(=O)(=O)N3CCCC3)cc21 [BC19181]	–
> 10	> 10	–	–	CC(=O)N1c2cc(S(=O)(=O)N3CCCC3)ccc2NC(=O)C1C (centres unmarked) [BC19182]	–
> 10	> 10	–	–	CNC(=O)N1CC(=O)Nc2ccc(S(=O)(=O)N3CCCC3)cc21 [BC19183]	–
> 10	> 10	–	–	CC(C)CC(=O)N1c2cc(S(=O)(=O)N3CCCC3)ccc2NC(=O)C1C (centres unmarked) [BC19184]	–
< 0.1	> 10	–	–	CN1CCN(C(=O)c2ccc3nc(-c4ccc(F)cc4)c(-c4cccs4)nc3c2)CC1 [BC19185]	–
1 to 10	> 10	–	–	Fc1ccc(-c2nc3cc(-c4nnn[nH]4)ccc3nc2-c2cccs2)cc1 [BC19186]	–
0.1 to 1	> 10	–	–	NC(=O)c1ccc2nc(-c3ccc(F)cc3)c(-c3cccs3)nc2c1 [BC19187]	–
0.1 to 1	> 10	–	–	CNC(=O)c1ccc2nc(-c3ccc(F)cc3)c(-c3cccs3)nc2c1 [BC19188]	–
0.1 to 1	> 10	–	–	C#CCNC(=O)c1ccc2nc(-c3ccc(F)cc3)c(-c3cccs3)nc2c1 [BC19189]	–
0.1 to 1	> 10	–	–	Cc1nc(-c2ccc3nc(-c4ccc(F)cc4)c(-c4ccc(F)cc4)nc3c2)no1 [BC19190]	–
> 10	> 10	–	–	CN1CCN(C(=O)c2ccc3nc(-c4cccs4)cnc3c2)CC1 [BC19191]	–
0.1 to 1	> 10	–	–	N#Cc1ccc2nc(-c3ccc(F)cc3)c(-c3ccc(F)cc3)nc2c1 [BC19192]	–
0.1 to 1	> 10	–	–	Cc1noc(-c2ccc3nc(-c4ccc(F)cc4)c(-c4ccc(F)cc4)nc3c2)n1 [BC19193]	–
< 0.1	> 10	–	–	N=C(NO)c1ccc2nc(-c3ccc(F)cc3)c(-c3ccc(F)cc3)nc2c1 [BC19194]	–
1 to 10	> 10	–	–	CC(C)OC(=O)Nc1ccc2nc(-c3ccc(F)cc3)c(-c3ccc(F)cc3)nc2c1 [BC19195]	–
–	–	0.1 to 1	> 10	O=c1c(S(=O)(=O)c2ccc(F)c(F)c2)c[nH]c2c(Cl)ccc(F)c12 [BC19196]	–
–	–	0.1 to 1	> 10	Cc1ccc(F)c2c(=O)c(S(=O)(=O)c3ccc(F)c(F)c3)c[nH]c12 [BC19197]	–
